# Measured values: patent US4089946A, “Claudogenic-interceptive nonapeptides” (American Home Products Corporation, priority 1976, dated 1978)
# Assays:
# [1] = tested on: Proestrous female Sprague-Dawley rats (ovulation, ova in fallopian tubes); test: Ovulation induction in Nembutal-blocked proestrous rats; assay type: in vivo, rat
# Method: The ovulation-induction properties of the nonapeptides of this invention was determined with the preferred compound, [D-Trp^6,(N-methyl)Leu^7,des-Gly-NH2^10,Pro-ethylamide]LRH as follows: Proestrous female Sprague-Dawley rats were injected intraperitoneally with a hypnotic dose of Nembutal® (50 mg/kg) at 1:30 PM. Between 1:40 and 1:50 PM the rats received the test material via the jugular vein. The following morning the animals were sacraficed and the fallopian tubes examined for ova under a dissecting microscope. […] Thus, in its ovulation induction, the preferred compound of this invention is about ten times as active as its closest structural analogues.
# [2] = tested on: Mature, female, Sprague-Dawley rats (pregnancy: uterine implantation sites and fetuses); test: Anti-gravidity (claudogenic/interceptive, post-coital) evaluation in pregnant rats; assay type: in vivo, rat
# From the text: The procedure followed in evaluating the anti-gravidity properties of the nonapeptides of this invention was as follows: Mature, female, Sprague-Dawley rats (350 + 30 grams body weight) maintained on a 14:10 light:dark schedule were caged with fertile male rats on the evening of proestrus. The presence of vaginal sperm the next morning was considered day 1 of pregnancy. The nonapeptide ethylamine produced in the following examples, representative of the entire group of compounds of this invention, was administered subcutaneously in a corn oil vehicle on days 1-7, or 7-12 of pregnancy at a rate of as low as 1 μg/rat/day. One-half the daily dose was administered at 9 A.M. and at 3 P.M. each day. The recipients of day 1-7 treatment were autopsied on day 14. The recipients of day 7-12 treatment were autopsied on day 18 of pregnancy. The effectiveness of the ethylamide and its effective dose was established by the absence of uterine implantation sites and fetuses. The presence of at least one normal fetus was considered to be the criterion for pregnancy. […]
Compound,rats showing ovulation inducing activity ([1]; 0.1 mg per rat via the jugular vein) [%],"ovulation induction activity relative to closest structural analogues ([1]; rat, in vivo)","effectiveness of treatment (absence of uterine implantation sites and fetuses) ([2]; 1 microgram per rat per day subcutaneously in corn oil, day 1-7 of pregnancy, five rat sample, autopsy day 14) [%]","effectiveness of treatment (absence of uterine implantation sites and fetuses) ([2]; 10 micrograms per rat per day subcutaneously in corn oil, day 7-12 of pregnancy, autopsy day 18) [%]",dose required to obtain 100 percent ovulation ([1]; via the jugular vein)
CCNC(=O)[C@@H]1CCCN1C(=O)[C@H](CCCNC(=N)N)NC(=O)[C@H](CC(C)C)N(C)C(=O)[C@@H](Cc1c[nH]c2ccccc12)NC(=O)[C@H](Cc1ccc(O)cc1)NC(=O)[C@H](CO)NC(=O)[C@H](Cc1c[nH]c2ccccc12)NC(=O)[C@H](Cc1c[nH]cn1)NC(=O)[C@@H]1CCC(=O)N1 [L-pyroglutamyl-L-histidyl-L-tryptophyl-L-seryl-L-tyrosyl-D-tryptophyl-N-methyl-L-leucyl-L-arginyl-L-prolinethylamide],100,about ten,100,100,
"LRH: LRH itself, the parent hormone used as comparison for ovulation induction (QHWSYGLRPG; Gonadoliberin-1; UniProt P01148 24-33, looked up) [reference compound]",,,,,about 3 mg per rat
